According to paper PMC9741287, “Cytotoxic and Luminescent Properties of Novel Organotin Complexes with Chelating Antioxidant Ligand” (Molecules, 2022):

What was measured:
[1] = Hydrolysis stability at different pH (UV-vis); assay type: physicochemical; settings: phosphate buffer, pH = 5 and pH = 7; absorbance 250–500 nm
Method: Investigations of potential drug pharmacokinetics are an important part of the evaluation of its potential efficacy and applicability. On the base level, this can be studied in vitro as a hydrolysis stability assay at different pH levels. […] The stability of compounds was estimated as an optical density drop at λ = 250–500 nm at pH = 5 and pH = 7 (Figure 3 and Figure 4).
The stability of synthesized compounds was estimated spectrophotometrically. To 1.5 mL of either phosphate buffer with pH = 5.0 or phosphate buffer with pH = 7.4, 300 µL of 2 mM test solution in MeOH was added. Then adsorption spectra at λ = 250–500 nm were recorded for 20 h. Graphs were built using OriginPro 2019b.

For `CC(C)(C)c1cc(C(=O)N/N=C/c2ccccc2O)cc(C(C)(C)C)c1O` [Compound 1, Di-tert-butyl-4-hydroxy-N′-(2-hydroxybenzylidene)-benzohydrazine], the “Time after which decomposition (hydrolysis) is seen” value [1] was “approximately 1 h” and the melting point was 265 to 269 °C.
